Source: publication PMC4879785, “GintAMT3 – a Low-Affinity Ammonium Transporter of the Arbuscular Mycorrhizal Rhizophagus irregularis” (Frontiers in Plant Science, 2016)

How the values were obtained:
GintAMT2 = target: T1, GintAMT2 (Rhizophagus intraradices, UniProt F8K9Q4); settings: starting ammonium printed as 1 mM and 2 mM (Figure 5 legend)
T1 construct: gene amt2

GintAMT1 = target: T2, GintAMT1 (Rhizophagus intraradices, UniProt A2Q6J0); settings: starting ammonium printed as 1 mM and 2 mM (Figure 5 legend)
T2 construct: gene AMT1
T2 sequence (A2Q6J0 1-479): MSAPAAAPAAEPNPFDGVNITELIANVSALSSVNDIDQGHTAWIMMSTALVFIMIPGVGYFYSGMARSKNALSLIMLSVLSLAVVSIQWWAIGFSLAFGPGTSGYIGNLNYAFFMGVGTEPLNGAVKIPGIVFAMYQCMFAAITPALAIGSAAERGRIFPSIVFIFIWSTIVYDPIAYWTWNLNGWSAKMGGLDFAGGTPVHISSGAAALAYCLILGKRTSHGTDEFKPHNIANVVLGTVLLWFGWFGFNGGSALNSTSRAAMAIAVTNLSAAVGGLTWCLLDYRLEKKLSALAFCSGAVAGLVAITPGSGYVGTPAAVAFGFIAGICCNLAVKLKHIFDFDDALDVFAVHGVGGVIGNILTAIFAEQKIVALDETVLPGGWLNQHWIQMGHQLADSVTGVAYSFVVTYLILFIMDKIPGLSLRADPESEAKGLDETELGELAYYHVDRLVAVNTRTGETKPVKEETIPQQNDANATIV

[1] = substrate: CN; test: cells, lysate or membranes; type: cell-based, Rhizophagus irregularis; settings: pH 5, 50 mM KH2PO4, 20 mM glucose, 30 °C, labelled compound, 0-15 mM substrate, Hanes-Woolf plot

T1 sequence (F8K9Q4 1-470): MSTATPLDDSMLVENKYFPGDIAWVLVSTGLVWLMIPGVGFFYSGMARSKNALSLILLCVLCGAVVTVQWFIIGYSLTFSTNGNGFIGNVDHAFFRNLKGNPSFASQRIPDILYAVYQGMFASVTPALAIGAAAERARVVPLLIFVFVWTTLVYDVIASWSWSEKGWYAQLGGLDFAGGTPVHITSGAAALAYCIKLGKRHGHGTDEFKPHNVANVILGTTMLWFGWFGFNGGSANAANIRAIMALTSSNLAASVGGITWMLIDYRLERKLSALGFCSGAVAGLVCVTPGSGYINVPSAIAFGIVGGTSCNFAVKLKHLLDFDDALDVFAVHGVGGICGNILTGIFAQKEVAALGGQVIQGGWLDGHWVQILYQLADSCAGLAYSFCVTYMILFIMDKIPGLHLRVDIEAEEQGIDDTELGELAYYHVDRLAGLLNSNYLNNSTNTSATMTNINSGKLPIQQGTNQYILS

## N [ammonium]
GintAMT2
  ammonium removal from medium by yeast: GintAMT2 and GintAMT3 expressing cells imported ammonium at a slower rate
GintAMT1
  ammonium removal from medium by yeast: Yeast cells expressing ScMEP1 and GintAMT1 took up ammonium quite rapidly.

B1: GintAMT3 (Rhizophagus irregularis) (protein)
chain: MSETSQPSQFKEGDIAWMLTSTAFVWLMIPGVGYFYSGMARSKNALSLILFCFLCVPVVAMQWFIWGYSLSFSRTGGLFIGNLRNAFFMNVRGEPTLKAESLPEIVHAIYQGMFAAITPSLAIGAAAERARMLPLLVFIFVWSTLVYDVIACWIWSANGWFKTIEGLDFAGGTPVHIASGAAALAYCVVLGKRHGHGRDEFKPHNNVNVILGTVFLWFGWFGFNGGSAFGANTRAAMAIMVTNTAASFGGLAWMLMDYRLERKFSALGFCSGAVAGLVCITPASGYVSPPVSVLFGITGGIACNLAVKLKHILDFDDALDVFAVHAVGGVAGNTLLGIFADKEMAALNGEIIHGGAIDGHSVQLGYQIASSIAGLTYSFCISALILYVMDRIPCLKLRMEPDEEEIGTDETELGEPAYYFLDRVVASIQVQIASKTMSSPQQTQLQSIDHIHYS
[1]
  Km: 1800 µM
